Reference: patent US5744621A, “Irreversible HIV protease inhibitors, intermediates, compositions and processes for the preparation thereof” (Lucky Limited., priority 1992, dated 1998)
Where two headings read alike, the source gives them in different places.

How the values were obtained:
HIV-1 = test: Anti-viral activity: syncytium formation (Sup T1) or reverse transcriptase assay (H9); assay type: cell-based; details: Human immunodeficiency virus 1, SUP-T1
Method: The anti-viral activity of the compounds of the present invention was determined by measuring the concentration of the compounds that inhibits the proliferation of HIV by 50%(IC50) through a survey for syncytium formation or reverse transcriptase assay.
1×10^5 cells of each of H9(ATCC HTB 176) and Sup T1 cell lines were added to the wells of a 24-well microtiter plate and various concentrations so the compounds of the present invention were added thereto. 200 TCID50 (200-fold of 50% tissue culture infection dose) of HIV-1 inoculum and rpmi-1640 medium(Sigma Chemical Co., U.S.A) were added successively to the wells and the plate was incubated at 37° C. In case of Sup T1, the number of syncytium formed was investigated after 3 to 9 days. IC50 of each compound was determined by measuring the concentration of inhibitor that can reduce the number of syncytium by 50% compared with those formed in the same condition without the inhibitor.
In case of H9, three-quarters(3/4) of the culture medium in volume was refreshed every 3 days; and 6 ml of the culture fluid was centrifuged at 1000 rpm for 10 minutes. To 5 ml of the resulting supernatant were added 2.5 ml of 30% polyethyleneglycol(PEG, M.W. 6000-8000) and 0.4M NaCl. The resulting solution was allowed to stand at 0° C. overnight to precipitate virus particles. The solution was centrifuged at 2000 rpm for 45 minutes, the supernatant was discarded therefrom and the precipitate was diluted with 20 μl of a reverse transcriptase suspension buffer(50 mM tris-HCl, pH 7.5, 1 mM dithiothreitol, 20% glycerol, 0.25M KCl and 0.25% Triton X-100). The resulting suspension was stored in an Effendorf tube at -70° C. until used. A procedure of freezing said virus suspension for 2 minutes in dry ice and thawing same at 37° C. for 2 minutes was repeated three times and the resulting suspension was centrifuged at 4° C. The resulting supernatant was used in carrying out the reverse transcriptase assay.
10 μl of the said viral suspension was added to a solution of: 10 μl of buffer solution(250 mM tris-HCl, pH 7.5, 37.5 mM MgCl2, 0.25% triton X-100), 1.2 μl of 200 mM dithiothreitol, 5 μl of 10 μM oligo(dT)-poly(A)(Boeringer Manheim, 12-18 oligomer), 1 μl(1 μCi) of ^3 H-TTP(Thymidinetri-phosphate) and 23.6 μl of water; and the resulting mixture was placed at 37° C. After 1 hour, the mixture was poured onto a WHATMAN DEB1 filter and the filter was washed three times with 5 ml of 2×SSC buffer solution(17.53 g of sodium chloride, 8.82 g of sodium citrate, pH 7.0, 1 liter of water) for about 10 minutes each time and twice with 95% ethanol for 10 seconds. The filter was put onto aluminium foil and dried with an infra-red lamp. The amount of radioactivity was counted using a liquid scintillation counter. IC50 of each compound was determined by measuring the concentration of inhibitor that can reduce the activity of reverse transcriptase by 50%.

[1] = Cytotoxicity in H9 or Sup T1 cells (trypan blue dye exclusion); assay type: cell-based; details: human
Method: To determine the cytotoxicity of the compounds of the present invention, 0.1 μM to 100 μM of the novel compounds were added to H9 cell or Sup T1 cell and the mixture was cultured on a rpmi-1640 medium at 37° C. The medium was refreshed every 3 days and the extent of cell proliferation was observed using Hemacytometer according to the trypan blue dye exclusion technique which is well known in the art. CT50 (i.e., concentration that causes death of cells by 50%) was determined. For reference, AZT(Burrows-Wellcome), A-75925 (Abbott, C2 symmetric compound) and Ro-31-8959(F. Hofmann-La Roche) were used as control compounds.

HIV-1 protease = molecular target: T1, HIV-1 protease (Human immunodeficiency virus type 1 group M subtype B, UniProt P04585); test: Assay for inhibitory effect on HIV protease (residual enzyme activity, HPLC of substrate cleavage); assay type: biochemical; details: pH 5.5; for Ki / kinact: HIV-1 protease 2.6 nM; for Ki: inhibition constant; for kinact: rate constant of covalent bond formation, read-out: kina (converted); for kinact/KI: second order rate constant, HIV-1 protease, read-out: kina /KI (converted)
T1 construct: 2.6 nM of HIV-1 protease
Method: The inhibitory effect on HIV protease of the compounds of the present invention was determined by the following method.
To a buffer solution comprising 50 mM sodium acetate, pH 5.5, 1 mM dithiothreitol(DTT), 1 mM ethylenediaminetetraacetate (EDTA), 0.75M ammonium sulfate, 0.2M sodium chloride and 0.1% NP40(NONIDET P-40; Sigma Chemical Co., U.S.A.), were added various concentrations of a compound selected from Compound Nos. 1 to 92 to prepare a preincubation solution. Inhibition reaction was started with the addition of 2.6 nM of HIV-1 protease to the preincubation solution. Each 10 μl of the reaction solution was taken at a given time interval and added to 80 μl of assay solution containing 100 μM of reaction substrate in the same buffer solution as above to assay for the residual enzyme activity. In this context, an oligopeptide(KM =20 μM) consisting of 11 amino acids, i.e., Ser-Ile-Ala-Glu-(p-NO2)-Phe-Leu-Val-Arg-Ala-Lys-His, was used as a reaction substrate, which oligopeptide was to be cleaved in two by the breakage of amide bond between (P--NO2)-Phe and Leu upon the attack of HIV protease. The reaction rate was determined by subjecting the substrate before the reaction and the product after the reaction to HPLC separation and then measuring the relative amount of the product, using the strong absorbance of (p--NO2)-Phe at 280 nm. The amount of reduction in enzyme activity according to the elapsed time were measured and the natural logarithmic values(ln) of the measured amounts were plotted against time to obtain a linear graph and kobs was calculated from the slope of the linear graph.
The inhibition constant was calculated according to the following equation: [formula] wherein: kobs is a rate constant indicating the rate of reduction in enzyme activity according to the elapsed time under the presence of a given concentration of inhibitor,
kina is a rate constant indicating the rate of chemical reaction forming covalent bond between an enzyme and an inhibitor in Michaelis-Menten complex,
KI is an inhibition constant indicating the dissociation rate of Michaelis-Menten complex into an enzyme and an inhibitor, and
[I] means the inhibitor concentration.
The above equation is applicable to an experiment carried out under the condition in which the concentration of inhibitor is far higher than that of enzyme(Steady State Kinetic). […] The inhibition constants KI and kina and second order rate constant kina /KI were obtained by inputting the value of [E]/([E]+[EI]+[EI']) into KINSIM/FITSIM program. FIG. 1 exemplifies a result of the experiment determining the binding ratio of enzymes and inhibitors, which result was obtained by reacting the enzyme and the inhibitor in various concentration ratios for a sufficient time period(at least for 30 minutes), and then plotting the relative activity of the remaining enzyme against [conc. of inhibitor]/[conc. of enzyme].

[2] = concentration that causes death of cells by 50%, H9 or Sup T1 cells, 37° C, read-out: CT50 (the source's name)

Row | SMILES | IC50 (HIV-1) | CC50 ([1]; h9 or sup t1 cells) | CC50 [1, 2] | Ki (HIV-1 protease) | kinact (HIV-1 protease) | kinact/KI (HIV-1 protease)
1 | CC(C)(C)NC(=O)[C@@H]1C[C@@H]2CCCC[C@@H]2CN1C[C@@H](O)[C@H](Cc1ccccc1)NC(=O)[C@H](CC(N)=O)NC(=O)c1ccc2ccccc2n1 [Ro-31-8959, reference compound] | 0.04 µM | > 100 µM | – | – | – | –
2 | CC[C@H](C)[C@H](NC(=O)C[C@@H]1O[C@@H]1[C@H](Cc1ccccc1)NC(=O)[C@H](CC(N)=O)NC(=O)c1ccc2ccccc2n1)C(=O)OC [compound 2, N-[5-L-[[N-(2-quinolinecarbonyl)-L-asparaginyl]amino]-epoxy-6-phenyl-hexanoyl]-L-isoleucine methyl ester] | 0.2 µM | – | > 100 µM | 0.018 µM | 0.00367 s⁻¹ | 200000 M⁻¹ s⁻¹
3 | CC[C@H](C)[C@H](NC(=O)C[C@@H]1O[C@@H]1[C@H](Cc1ccccc1)NC(=O)[C@H](CC(N)=O)NC(=O)COc1cccc2ccccc12)C(=O)OC [compound 3] | 3 µM | – | > 100 µM | 0.04 µM | 0.002 s⁻¹ | 50000 M⁻¹ s⁻¹
4 | CC[C@H](C)[C@H](NC(=O)C[C@@H]1O[C@@H]1[C@H](Cc1ccccc1)NC(=O)[C@H](CC(N)=O)NC(=O)c1ccc2ccccc2n1)C(=O)N[C@H](C(=O)OC)C(C)C [compound 6] | 5 µM | – | > 100 µM | 0.42 µM | 0.00217 s⁻¹ | 5170 M⁻¹ s⁻¹
5 | CC[C@H](C)[C@H](NC(=O)C[C@@H]1O[C@@H]1[C@H](Cc1ccccc1)NC(=O)[C@H](CC(N)=O)NC(=O)c1ccc2ccccc2n1)C(=O)NCc1ccccc1 [compound 8] | 7 µM | – | > 100 µM | 0.06 µM | 0.002 s⁻¹ | 33300 M⁻¹ s⁻¹
6 | CC[C@H](C)[C@H](NC(=O)C[C@@H]1O[C@@H]1[C@H](Cc1ccccc1)NC(=O)[C@H](CC(N)=O)NC(=O)c1ccc2ccccc2n1)C(=O)NCc1ccccn1 [compound 9] | 8 µM | – | > 100 µM | 0.055 µM | 0.00183 s⁻¹ | 33300 M⁻¹ s⁻¹
7 | COC(=O)C(CCC(N)=O)NC(=O)C[C@@H]1O[C@@H]1[C@H](Cc1ccccc1)NC(=O)[C@H](CC(N)=O)NC(=O)c1ccc2ccccc2n1 (stereo partly shown) [compound 12] | 7 µM | – | > 100 µM | 0.37 µM | 0.005 s⁻¹ | 13500 M⁻¹ s⁻¹
8 | COC(=O)C(CCC(N)=O)NC(=O)C[C@@H]1O[C@@H]1[C@H](Cc1ccccc1)NC(=O)[C@H](CC(N)=O)NC(=O)OCc1ccccc1 (stereo partly shown) [compound 13] | 10 µM | – | > 100 µM | 0.52 µM | 0.00717 s⁻¹ | 13800 M⁻¹ s⁻¹
9 | COC(=O)C(Cc1ccccc1)NC(=O)C(CCC(N)=O)NC(=O)C[C@@H]1O[C@@H]1[C@H](Cc1ccccc1)NC(=O)[C@H](CC(N)=O)NC(=O)c1ccc2ccccc2n1 (stereo partly shown) [compound 14] | 9 µM | – | > 100 µM | 0.35 µM | 0.00417 s⁻¹ | 11800 M⁻¹ s⁻¹
10 | CC(C)[C@H](NC(=O)C[C@@H]1O[C@@H]1[C@H](Cc1ccccc1)NC(=O)[C@H](CC(N)=O)NC(=O)c1ccc2ccccc2n1)C(=O)NCc1ccccn1 [compound 19] | 5 µM | – | > 100 µM | 0.081 µM | 0.00367 s⁻¹ | 45000 M⁻¹ s⁻¹
11 | CC[C@H](C)[C@H](NC(=O)C[C@@H]1O[C@@H]1[C@H](Cc1ccccc1)NC(=O)[C@H](CC(N)=O)NC(=O)c1ccc2ccccc2n1)C(=O)NC [compound 25, N-{5-L-[[N-(2-quinolinecarbonyl)-L-asparaginyl]amino]-(4R,3S)-epoxy-6-phenylhexanoyl}-L-isoleucinyl-methylamide] | 0.5 µM | – | > 100 µM | 0.02 µM | 0.003 s⁻¹ | 150000 M⁻¹ s⁻¹
12 | CC[C@H](C)[C@H](NC(=O)C[C@@H]1O[C@@H]1[C@H](Cc1ccccc1)NC(=O)[C@H](CC(N)=O)NC(=O)c1ccc2ccccc2n1)C(=O)N(C)C [compound 26] | 0.5 µM | – | > 100 µM | > 10 µM | – | –
